Data published in patent US9040528B2, “Chemical compounds 542” (AstraZeneca AB, priority 2008, dated 2015).
Like-named read-outs stand apart in the source and are kept apart here.

Target: Escherichia coli DNA gyrase A/B tetramer (Escherichia coli (strain K12), UniProt P0AES4+P0AES6)
Test: DNA gyrase supercoiling activity fluorescence polarisation assay
Assay type: biochemical
Method in brief: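 Supercoiling reactions quenched with 40 nM 5′-BODIPY-FL triplex-forming oligonucleotide probe in pH 3.5 NaCl/sodium acetate buffer; after 60 min, fluorescence anisotropy read (ex 485/em 535 nm). IC50 by nonlinear regression, normalised to 0.8% DMSO (100% activity) and 5 μM ciprofloxacin (0% activity).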

[1] = 5 nM enzyme, relaxed plasmid, 0.3 mM ATP, ambient temperature, read-out: E. coli DNA gyrase supercoiling IC50

SMILES | IC50 [1] | IC50
Cc1cc(CNc2noc3c(F)c4c(cc23)CC2(C(=O)NC(=O)NC2=O)[C@H]2[C@H](C)O[C@H](C)CN42)no1 (relative stereo) [Example 13, (2R,4S,4aS)-rel-11-fluoro-2,4-dimethyl-8-{[(5-methyl-1,2-oxazol-3-yl)methyl]amino}-1,2,4,4a-tetrahydro-2′H,6H-spiro[1,4-oxazino[4,3-a][1,2]oxazolo[4,5-g]quinoline-5,5′-pyrimidine]-2′,4′,6′(1′H,3′H)-trione] | 1.7 µM | –
Cc1noc2c(F)c3c(cc12)CC1(C(=O)NC(=O)NC1=O)[C@H]1[C@H](C)O[C@H](C)CN31 (relative stereo) [Example 2, (2R,4S,4aS)-rel-11-fluoro-2,4,8-trimethyl-1,2,4,4a-tetrahydro-2′H,6H-spiro[isoxazolo[4,5-g][1,4]oxazino[4,3-a]quinoline-5,5′-pyrimidine]-2′,4′,6′(1′H,3′H)-trione] | – | 0.4 µM
C[C@@H]1CN2c3c(cc4c(-c5ccnc(N6CCOCC6)n5)noc4c3F)CC3(C(=O)NC(=O)NC3=O)[C@H]2[C@H](C)O1 [Example 176, (2R,4S,4aS)-11-fluoro-2,4-dimethyl-8-(2-morpholinopyrimidin-4-yl)-2,4,4a,6-tetrahydro-1H,1′H-spiro[isoxazolo[4,5-g][1,4]oxazino[4,3-a]quinoline-5,5′-pyrimidine]-2′,4′,6′(3′H)-trione] | 3.2 µM | –
C[C@@H]1CN2c3c(nc4c(-c5nccs5)noc4c3Cl)CC3(C(=O)NC(=O)NC3=O)[C@H]2[C@H](C)O1 [Example 111(b), (2R,4S,4aS)-11-chloro-2,4-dimethyl-8-(thiazol-2-yl)-2,4,4a,6-tetrahydro-1H,1′H-spiro[isoxazolo[4,5-g][1,4]oxazino[4,3-a][1,5]naphthyridine-5,5′-pyrimidine]-2′,4′,6′(3′H)-trione] | 1.1 µM | –
C[C@@H]1CN2c3c(cc4c(C(=O)NC(C)(C)C)noc4c3F)CC3(C(=O)NC(=O)NC3=O)[C@H]2[C@H](C)O1 (relative stereo) [Example 144, (2R,4S,4aS)-rel-N-tert-butyl-11-fluoro-2,4-dimethyl-2′,4′,6′-trioxo-2,2′,3′,4,4a,4′,6,6′-octahydro-1H,1′H-spiro[isoxazolo[4,5-g][1,4]oxazino[4,3-a]quinoline-5,5′-pyrimidine]-8-carboxamide] | 2.9 µM | –
C[C@@H]1CN2c3c(cc4c(CO)noc4c3F)CC3(C(=O)NC(=O)NC3=O)[C@H]2[C@H](C)O1 (relative stereo) [Example 185, (2R,4S,4aS)-rel-11-fluoro-8-(hydroxymethyl)-2,4-dimethyl-2,4,4a,6-tetrahydro-1H,1′H-spiro[isoxazolo[4,5-g][1,4]oxazino[4,3-a]quinoline-5,5′-pyrimidine]-2′,4′,6′(3′H)-trione] | – | 1.4 µM
COC[C@@H]1CN2c3c(cc4c(C)noc4c3F)CC3(C(=O)NC(=O)NC3=O)[C@H]2[C@H](C)O1 (relative stereo) [Example 106, (2S,4S,4aS)-rel-11-fluoro-2-(methoxymethyl)-4,8-dimethyl-1,2,4,4a-tetrahydro-2′H,6H-spiro[1,4-oxazino[4,3-a][1,2]oxazolo[4,5-g]quinoline-5,5′-pyrimidine]-2′,4′,6′(1′H,3′H)-trione] | 1.1 µM | –
C[C@@H]1CN2c3c(nc4c(-c5ccncc5)noc4c3Cl)CC3(C(=O)NC(=O)NC3=O)[C@H]2[C@H](C)O1 (relative stereo) [Example 108, (2R,4S,4aS)-rel-11-chloro-2,4-dimethyl-8-(pyridyin-4-yl)-2,4,4a,6-tetrahydro-1H,1′H-spiro[isoxazolo[4,5-g][1,4]oxazino[4,3-a][1,5]naphthyridine-5,5′-pyrimidine]-2′,4′,6′(3′H)-trione] | 0.8 µM | –
C[C@H]1CN2c3c(cc4c(-c5ncccn5)noc4c3F)CC3(C(=O)NC(=O)NC3=O)[C@@H]2[C@@H](C)O1 [Example 148(a), (2S,4R,4aR)-11-fluoro-2,4-dimethyl-8-(pyrimidin-2-yl)-2,4,4a,6-tetrahydro-1H,1′H-spiro[isoxazolo[4,5-g][1,4]oxazino[4,3-a]quinoline-5,5′-pyrimidine]-2′,4′,6′(3′H)-trione] | 83 µM | –
